Data as given in article PMC6941172 (Journal of medicinal chemistry, 2018).
“Also recorded” adds a separate entry of the source.

Experiments:
Dopamine D5 = Dopamine D5 (Homo sapiens, UniProt P21918); assay: PDSP radioligand displacement, [3H]SCH233930; type: binding; settings: [3H]SCH233930, PDSP primary assay
C57BL/6 mice = assay: Spontaneous locomotor activity assay in mice; type: in vivo, mouse; settings: for Hyperlocomotor action: IP 3, 10 and 30 mg/kg
adult male Wistar rats = assay: Spontaneous locomotor activity assay in rats; type: in vivo, rat
[1] = Pharmacokinetic study, IP 10 mg/kg, plasma and brain; type: in vivo, rat; settings: rats
rats = assay: Rotarod pilot experiment in rats; type: in vivo, rat
[2] = Microsomal stability assay, mouse liver microsomes; type: in vitro ADME; settings: vs respective parent (8a, 8i, 8n or 8k)
[3] = Microsomal stability assay, human liver microsomes; type: in vitro ADME; settings: vs respective parent (8a, 8i, 8n or 8k)
[4] = test system: BZP rat brain site of GABAARs; assay: PDSP radioligand displacement, [3H]flunitrazepam; type: binding; settings: [3H]flunitrazepam displacement
HEPG2 (liver) cells = assay: Cytotoxicity assay; type: cell-based, human; settings: HEPG2, up to 400 μM, 48 hours
GABAAR α6β3γ2 subtype [5] = target: T1, GABAAR α6β3γ2 subtype (Rattus norvegicus, UniProt P18508+P30191+P63079); assay: Electrophysiological assay in Xenopus oocytes, modulation of GABA EC3 currents; type: cell-based
T1 sequence (P30191 20-453): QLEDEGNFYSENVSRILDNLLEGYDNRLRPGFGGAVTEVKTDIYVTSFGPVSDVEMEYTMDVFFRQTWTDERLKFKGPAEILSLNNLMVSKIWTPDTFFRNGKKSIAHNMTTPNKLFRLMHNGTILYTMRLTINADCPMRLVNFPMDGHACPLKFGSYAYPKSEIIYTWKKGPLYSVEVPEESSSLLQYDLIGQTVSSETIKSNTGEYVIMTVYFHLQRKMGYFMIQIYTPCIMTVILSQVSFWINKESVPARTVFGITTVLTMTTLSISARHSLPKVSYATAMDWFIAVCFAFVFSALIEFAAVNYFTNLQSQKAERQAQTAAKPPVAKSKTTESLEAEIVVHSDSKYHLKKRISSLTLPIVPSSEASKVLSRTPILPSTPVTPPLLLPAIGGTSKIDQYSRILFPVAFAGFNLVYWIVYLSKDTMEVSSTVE
T1 sequence (P63079 26-473): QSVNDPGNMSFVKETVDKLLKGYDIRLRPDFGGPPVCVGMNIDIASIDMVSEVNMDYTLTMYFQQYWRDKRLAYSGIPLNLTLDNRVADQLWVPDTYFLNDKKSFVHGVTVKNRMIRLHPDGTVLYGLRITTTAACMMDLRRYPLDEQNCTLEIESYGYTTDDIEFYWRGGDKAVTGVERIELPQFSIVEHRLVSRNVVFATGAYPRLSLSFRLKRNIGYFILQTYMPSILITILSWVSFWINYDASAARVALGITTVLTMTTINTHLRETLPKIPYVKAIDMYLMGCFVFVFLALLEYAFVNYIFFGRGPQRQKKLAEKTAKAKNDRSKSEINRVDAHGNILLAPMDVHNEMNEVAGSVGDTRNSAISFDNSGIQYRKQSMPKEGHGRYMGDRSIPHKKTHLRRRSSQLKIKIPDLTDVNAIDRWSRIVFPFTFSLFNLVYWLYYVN
T1 sequence (P18508 39-466): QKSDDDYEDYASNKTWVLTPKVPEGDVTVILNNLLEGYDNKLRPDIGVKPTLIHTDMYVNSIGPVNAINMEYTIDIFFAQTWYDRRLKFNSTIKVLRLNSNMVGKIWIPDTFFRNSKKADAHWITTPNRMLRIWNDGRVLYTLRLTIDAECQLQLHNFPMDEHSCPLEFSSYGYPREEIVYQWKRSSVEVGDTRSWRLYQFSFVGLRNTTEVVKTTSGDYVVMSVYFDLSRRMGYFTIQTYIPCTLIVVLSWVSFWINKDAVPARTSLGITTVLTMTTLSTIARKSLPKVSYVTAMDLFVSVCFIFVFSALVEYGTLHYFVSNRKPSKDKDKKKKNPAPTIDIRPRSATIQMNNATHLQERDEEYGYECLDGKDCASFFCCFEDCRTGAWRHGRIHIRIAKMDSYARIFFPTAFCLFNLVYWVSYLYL

HEK293 (kidney) cells = assay: Cytotoxicity assay; type: cell-based, human; settings: HEK293, up to 400 μM, 48 hours
GABAAR α6β3γ2 subtype [6] = target: T1, GABAAR α6β3γ2 subtype; settings: at 10 μM; cited from earlier work
DOR = DOR (Homo sapiens, UniProt P41143); assay: PDSP radioligand displacement, [3H]DADLE; type: binding; settings: PDSP primary assay
Chain of DOR (P41143 whole entry): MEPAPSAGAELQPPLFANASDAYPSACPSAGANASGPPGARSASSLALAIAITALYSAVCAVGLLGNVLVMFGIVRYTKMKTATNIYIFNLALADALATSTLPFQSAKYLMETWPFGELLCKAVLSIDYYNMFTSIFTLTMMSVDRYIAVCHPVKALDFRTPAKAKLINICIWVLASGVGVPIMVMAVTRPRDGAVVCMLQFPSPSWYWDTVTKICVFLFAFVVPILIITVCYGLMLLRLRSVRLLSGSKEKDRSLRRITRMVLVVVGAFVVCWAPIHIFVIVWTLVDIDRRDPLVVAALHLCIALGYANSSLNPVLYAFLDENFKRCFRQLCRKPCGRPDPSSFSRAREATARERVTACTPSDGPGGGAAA

Muscarinic M4 = target: T2, Muscarinic M4 (Homo sapiens, UniProt P08173); type: binding
T2 sequence (P08173 1-479): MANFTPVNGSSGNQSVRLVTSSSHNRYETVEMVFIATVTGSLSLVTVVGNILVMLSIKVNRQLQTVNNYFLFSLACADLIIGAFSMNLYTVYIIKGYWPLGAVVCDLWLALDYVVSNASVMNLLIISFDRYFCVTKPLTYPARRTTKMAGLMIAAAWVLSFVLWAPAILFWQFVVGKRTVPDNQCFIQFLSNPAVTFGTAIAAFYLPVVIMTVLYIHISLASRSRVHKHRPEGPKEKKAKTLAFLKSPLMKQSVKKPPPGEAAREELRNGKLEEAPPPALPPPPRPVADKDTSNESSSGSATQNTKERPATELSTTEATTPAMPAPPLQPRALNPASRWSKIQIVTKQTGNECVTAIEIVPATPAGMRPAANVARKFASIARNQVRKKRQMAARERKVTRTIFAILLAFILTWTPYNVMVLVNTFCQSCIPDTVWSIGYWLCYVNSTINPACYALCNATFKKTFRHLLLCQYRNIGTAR

Solubility assay = type: physicochemical
α1-5β3γ2 receptors = assay: Electrophysiological assay in Xenopus oocytes, other receptor subtypes; type: cell-based; settings: two-point experiments
[7] = test system: Female Swiss Webster mice; settings: 5 mg/kg positive control

Chain of Dopamine D5 (P21918 whole entry): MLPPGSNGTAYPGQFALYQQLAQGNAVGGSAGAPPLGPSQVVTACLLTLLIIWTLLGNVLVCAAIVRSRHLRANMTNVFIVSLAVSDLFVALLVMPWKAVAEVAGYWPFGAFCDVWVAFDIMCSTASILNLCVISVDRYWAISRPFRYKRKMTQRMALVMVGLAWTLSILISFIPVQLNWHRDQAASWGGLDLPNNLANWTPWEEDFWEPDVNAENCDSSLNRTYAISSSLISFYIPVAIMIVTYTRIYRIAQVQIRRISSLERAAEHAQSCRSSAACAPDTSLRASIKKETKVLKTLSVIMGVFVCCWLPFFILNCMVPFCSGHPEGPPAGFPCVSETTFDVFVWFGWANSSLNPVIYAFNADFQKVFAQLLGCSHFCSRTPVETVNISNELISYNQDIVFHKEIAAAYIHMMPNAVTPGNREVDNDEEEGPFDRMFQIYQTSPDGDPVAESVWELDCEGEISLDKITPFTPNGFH

COc1ccc(-n2nc3c4ccc(OC)cc4[nH]cc-3c2=O)cc1 [Compound 8a, 7-Methoxy-2-(4-methoxyphenyl)-2,5-dihydro-3H-pyrazolo[4,3-c]quinolin-3-one]
Activity at Dopamine D5 (Dopamine D5): showed activity | Hyperlocomotor action (C57BL/6 mice): induced a hyperlocomotor action

[2H]C([2H])([2H])Oc1ccc(-n2nc3c4ccc(OC)cc4[nH]cc-3c2=O)cc1 [Compound 8b, 7-Methoxy-2-(4-methoxy-d3-phenyl)-2,5-dihydro-3H-pyrazolo[4,3-c]quinolin-3-one]
Hyperlocomotor response (adult male Wistar rats; IP 10 mg/kg, first experiment (Figure 11A)): induced a hyperlocomotor response | Hyperlocomotor response (adult male Wistar rats; IP 10 mg/kg, repeated experiment (Figure 11C)): did not reach statistical significance | Hyperlocomotor response (adult male Wistar rats; IP 3 and 10 mg/kg, third experiment (Figure 11E)): present | Brain concentration (Cmax) compared with parent 8a [1]: almost two-fold increase | Free (unbound) brain concentrations [1]: ~100 nM | Motor coordination and balance on the rotarod (rats; IP doses as high as 55 mg/kg): retained | Increase in half-life (MLM) relative to parent ligand [2]: three-fold | Increase in half-life (HLM) relative to parent ligand [3]: 2.5 fold | Hyperlocomotor effect in combination with diazepam (C57BL/6 mice; IP 10 mg/kg with diazepam 3 mg/kg IP): present | Hyperlocomotor action (C57BL/6 mice): induced a hyperlocomotor action

[2H]C([2H])([2H])Oc1ccccc1-n1nc2c3ccc(OC)cc3[nH]cc-2c1=O [Compound 8h, 7-Methoxy-2-(2-methoxy-d3-phenyl)-2,5-dihydro-3H-pyrazolo[4,3-c]quinolin-3-one]
Binding to the BZP rat brain site (in words) [4]: significantly less binding; also recorded: significantly reduced affinity

[2H]C([2H])([2H])Oc1cccc(-n2nc3c4cc(Cl)ccc4[nH]cc-3c2=O)c1 [Compound 8j, 8-Chloro-2-(3-methoxy-d3-phenyl)-2,5-dihydro-3H-pyrazolo[4,3-c]quinolin-3-one]
Cytotoxicity / cell viability (HEPG2 (liver) cells): no impact on cytotoxicity | Efficacy / activity at the α6β3γ2 subtype (in words) (GABAAR α6β3γ2 subtype [5]): poorer efficacy | Increase in half-life (MLM) relative to parent ligand [2]: two-fold | Cytotoxicity / cell viability (HEK293 (kidney) cells): no impact on cytotoxicity | Increase in half-life (HLM) relative to parent ligand [3]: three-fold

COc1ccc(-n2nc3c4cc(Cl)ccc4[nH]cc-3c2=O)cc1 [Compound 8k, 8-Chloro-2-(4-methoxyphenyl)-2,5-dihydro-3H-pyrazolo[4,3-c]quinolin-3-one]
α6β3γ2 efficacy relative to 8a and 8n (GABAAR α6β3γ2 subtype [6]): three times higher

[2H]C([2H])([2H])Oc1ccc(-n2nc3c4cc(Cl)ccc4[nH]cc-3c2=O)cc1 [Compound 8l, 8-Chloro-2-(4-methoxy-d3-phenyl)-2,5-dihydro-3H-pyrazolo[4,3-c]quinolin-3-one]
Interaction with DOR (DOR): weakly interacted

[2H]C([2H])([2H])Oc1ccccc1-n1nc2c3cc(Cl)ccc3[nH]cc-2c1=O [Compound 8m, 8-Chloro-2-(2-methoxy-d3-phenyl)-2,5-dihydro-3H-pyrazolo[4,3-c]quinolin-3-one]
Binding to the BZP rat brain site (in words) [4]: reasonable binding affinity | Cytotoxicity / cell viability (HEPG2 (liver) cells): no impact on cytotoxicity | Efficacy / activity at the α6β3γ2 subtype (in words) (GABAAR α6β3γ2 subtype [5]): completely inactive; also recorded: no activity; also recorded: almost no efficacy | Motor coordination and balance on the rotarod (rats; IP doses as high as 60 mg/kg): retained | Cytotoxicity / cell viability (HEK293 (kidney) cells): no impact on cytotoxicity

[2H]C([2H])([2H])Oc1ccccc1-n1nc2c3ccc(Br)cc3[nH]cc-2c1=O [Compound 8q, 7-Bromo-2-(2-methoxy-d3-phenyl)-2,5-dihydro-3H-pyrazolo[4,3-c]quinolin-3-one]
Binding to the BZP rat brain site (in words) [4]: significantly less binding; also recorded: significantly reduced affinity

COc1ccc2c3nn(-c4ccc(OC)nc4)c(=O)c-3c[nH]c2c1 [Compound 13a, 7-Methoxy-2-(6-methoxypyridin-3-yl)-2,5-dihydro-3H-pyrazolo[4,3-c]quinolin-3-one]
Activity at Muscarinic M4 (Muscarinic M4): showed activity | Increase in half-life (MLM) relative to parent ligand [2]: slightly decreased half-life | Increase in water solubility (Solubility assay; vs parent ligand 8a): about 3 fold

[2H]C([2H])([2H])Oc1ccc2c3nn(-c4ccc(OC)nc4)c(=O)c-3c[nH]c2c1 [Compound 13c, 7-Methoxy-d3-2-(6-methoxypyridin-3-yl)-2,5-dihydro-3H-pyrazolo[4,3-c]quinolin-3-one]
Cytotoxicity / cell viability (HEPG2 (liver) cells): no impact of cell viability | Brain AUC0-12 as % of that obtained with 8b [1]: 45% | Brain AUC0-12 as % of that obtained with 8c [1]: 36% | Brain AUC0-12 as % of that obtained with 8d [1]: 55% | Brain concentration (Cmax) compared with parent 8a [1]: considerably less | Efficacy / activity at the α6β3γ2 subtype (in words) (GABAAR α6β3γ2 subtype [5]): retained some efficacy | Activity at α1-5β3γ2 receptors (α1-5β3γ2 receptors): lack of activity | Cytotoxicity / cell viability (HEK293 (kidney) cells): no impact of cell viability

COc1ccc(-n2nc3c4cc(Cl)ccc4[nH]cc-3c2=O)cn1 [Compound 13e, 8-Chloro-2-(6-methoxypyridin-3-yl)-2,5-dihydro-3H-pyrazolo[4,3-c]quinolin-3-one]
Cytotoxicity / cell viability (HEPG2 (liver) cells): no impact of cell viability | Increase in half-life (MLM) relative to parent ligand [2]: two-fold | Cytotoxicity / cell viability (HEK293 (kidney) cells): no impact of cell viability | Increase in half-life (HLM) relative to parent ligand [3]: nearly four-fold | Decrease in water solubility (Solubility assay; vs 8k, neutral and acidic aqueous media): ~10 fold

CN1C(=O)CN=C(c2ccccc2)c2cc(Cl)ccc21 [diazepam]
Rotarod motor impairment [7]: greatest impairment of sensorimotor steadiness at 10 minutes
